The values that follow come from article PMC7686273 (Bioorganic & medicinal chemistry letters, 2020).

The term clearance denotes a measure of how efficiently the substance is removed, as volume per time. Higher therefore signals efficient removal.

SMILES strings stand for the structures.

Tested on in the first series: not listed separately
Kind of series: stability under cell-based assay conditions. It is filed as physicochemical. The following applies: cell buffer.
As to `CCOC(=O)c1cnc2c(OC)cccc2c1N1CCN(c2ccccc2OC)CC1` [compound 8], the “stability of the ester under cell-based assay conditions” value is “stable”.

Tested on in another series: not listed separately
In words: clearance in vivo. The settings on record: plasma.
`CCOC(=O)c1cnc2c(OC)cccc2c1-c1cnc(-c2ccccc2OC)c(OC)c1` [15h] gave a clearance of 70 mL/min/kg.

The target of a further series is rat mGlu7 (Rattus norvegicus, UniProt P35400). In words: calcium mobilization assay with rat mGlu7/Gα15/HEK cells. Format: cell-based.
Chain of rat mGlu7 (P35400 35-915): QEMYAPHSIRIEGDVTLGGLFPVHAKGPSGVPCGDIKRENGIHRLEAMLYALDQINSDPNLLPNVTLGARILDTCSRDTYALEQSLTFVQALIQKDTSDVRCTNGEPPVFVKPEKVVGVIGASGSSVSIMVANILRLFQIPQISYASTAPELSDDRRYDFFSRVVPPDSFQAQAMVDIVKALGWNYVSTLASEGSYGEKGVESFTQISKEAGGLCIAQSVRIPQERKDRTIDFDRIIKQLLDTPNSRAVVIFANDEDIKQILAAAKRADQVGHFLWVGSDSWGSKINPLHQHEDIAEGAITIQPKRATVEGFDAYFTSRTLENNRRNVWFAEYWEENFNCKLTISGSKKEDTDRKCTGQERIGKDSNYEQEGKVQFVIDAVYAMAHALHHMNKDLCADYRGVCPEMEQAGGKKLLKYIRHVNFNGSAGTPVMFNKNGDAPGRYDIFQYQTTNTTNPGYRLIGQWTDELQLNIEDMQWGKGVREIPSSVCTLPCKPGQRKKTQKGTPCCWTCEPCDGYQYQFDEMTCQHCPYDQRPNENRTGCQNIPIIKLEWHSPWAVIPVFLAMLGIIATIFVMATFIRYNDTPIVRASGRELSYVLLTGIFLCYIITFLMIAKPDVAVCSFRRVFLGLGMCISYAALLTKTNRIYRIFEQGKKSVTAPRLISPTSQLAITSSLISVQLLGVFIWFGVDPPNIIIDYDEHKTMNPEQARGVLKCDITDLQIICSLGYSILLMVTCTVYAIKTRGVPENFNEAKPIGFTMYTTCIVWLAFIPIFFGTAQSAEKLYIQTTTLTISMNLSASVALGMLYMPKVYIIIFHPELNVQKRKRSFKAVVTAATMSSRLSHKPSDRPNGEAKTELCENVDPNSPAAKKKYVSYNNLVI
Conditions: not given
Background: Calcium flux is commonly read through the fluorescence of an indicator in the cells.
As for `CCOC(=O)c1cnc2c(OC)cccc2c1N1CCN(c2ccccc2Cl)CC1` [11d], the “mGlu7 NAM activity in words” value was “lost activity”.
For the molecule `CCOC(=O)c1cnc2c(OC)cccc2c1N1CCN(c2ccccc2C)CC1` [11e], the “mGlu7 NAM activity in words” value is “lost activity”.
Same read-out and setting: as for `CCOC(=O)c1cnc2c(OC)cccc2c1N1CCN(c2ccccc2C#N)CC1` [11f], the entry is “lost activity”; as for `CCOC(=O)c1cnc2c(OC)cccc2c1N1CCN(c2ccccc2F)CC1` [11h], “lost activity”; as for `CCOC(=O)c1cnc2c(OC)cccc2c1N1CCN(c2ccc(OC)cc2OC)CC1` [11i], “retained mGlu7 NAM potency”.
The same measure, in the same setting: as for `CCOC(=O)c1cnc2c(OC)cccc2c1N1CCN(c2c(OC)cccc2OC)CC1` [11j], the entry is “retained mGlu7 NAM potency”.
The same measure, in the same setting: as for `CCOC(=O)c1cnc2c(OC)cccc2c1N1CCN(c2cccnc2OC)CC1` [11l], the entry is “modest potency”; as for `CCOC(=O)c1cnc2c(OC)cccc2c1N1CCN(c2nccnc2OC)CC1` [11m], “modest potency”.
On to `CCOC(=O)c1cnccc1N1CCN(c2ccccc2OC)CC1` [13a], for which the “fold loss of mGlu7 NAM potency relative to 8” value is given as ~ 6.5 fold.
In the case of `CCOC(=O)c1cnc2ccsc2c1N1CCN(c2ccccc2OC)CC1` [13b], the “fold loss of mGlu7 NAM potency relative to 8” value is recorded as ~ 6.5 fold.
Regarding `CCOC(=O)c1cnc2sccc2c1N1CCN(c2ccccc2OC)CC1` [13c], the “fold loss of mGlu7 NAM potency relative to 8” value is ~ 6.5 fold.
`CCOC(=O)c1ccc2c(OC)cccc2c1N1CCN(c2ccccc2OC)CC1` [13d]: the “mGlu7 NAM activity in words” value was “inactive”.
The same measure, in the same setting: for `CCOC(=O)c1cnc2c(OC)cc(OC)cc2c1N1CCN(c2ccccc2OC)CC1` [13f] the value was “equipotent to 8”.
With `CCOC(=O)c1cnc2c(OC)cccc2c1N1CCN(c2ccccc2OC)C(C)C1` (stereo not drawn) [14a], the “fold loss of mGlu7 NAM potency relative to 8” value is recorded as ~ 2 fold.
On the same count and under the same terms, as for `CCOC(=O)c1cnc2c(OC)cccc2c1N1CCN(c2ccccc2OC)CC1C` (stereo not drawn) [14b], the figure is ~ 2 fold; as for `CCOC(=O)c1cnc2c(OC)cccc2c1N(C)CCN(C)c1ccccc1OC` [14c], ~ 6 fold.
`CCOC(=O)c1cnc2c(OC)cccc2c1C1C2CC1CN(c1ccccc1OC)C2` (stereo not drawn) [14f]: the “mGlu7 NAM activity in words” value is “inactive”.
On the same count and under the same terms, for `CCOC(=O)c1cnc2c(OC)cccc2c1C1CC2CC(C1)N2c1ccccc1OC` (stereo not drawn) [14g] the value was “inactive”; for `CCOC(=O)c1cnc2c(OC)cccc2c1N1CC2(CN(c3ccccc3OC)C2)C1` [14i], “not productive”.
As to `CCOC(=O)c1cnc2c(OC)cccc2c1-c1ccn(Cc2ccccc2OC)c1` [15j], the “mGlu7 NAM activity in words” value is “competent surrogate”.
Same read-out and setting: as for `CCOC(=O)c1cnc2c(OC)cc(OC)cc2c1-c1ccc(-c2ccccc2OC)nc1` [compound 18], the entry is “sub-micromolar”.
Take `CCOC(=O)c1cnc2c(OC)cc(OC)cc2c1-c1ccc(-c2ccccc2OCC)nc1` [compound 19]: the “mGlu7 NAM activity in words” value is listed as “sub-micromolar”.
